This note sets out measurements from patent US10633382B2, “Imidazopyrazinones, pyrazolopyrimidinones and pyrazolopyridinones as PDE1 inhibitors” (H. Lundbeck A/S, priority 2016, dated 2020).

Assay type in all cases: biochemical
One test deals with PDE9 (Homo sapiens, UniProt O76083). The test can be described thus: PDE9 inhibition assay. The settings on record: 10 μM of inhibitor. As for the experimental part:
A PDE9 assay may for example, be performed as follows: The assay is performed in 60 μL samples containing a fixed amount of the relevant PDE enzyme (sufficient to convert 20-25% of the cyclic nucleotide substrate), a buffer (50 mM HEPES pH 7.6; 10 mM MgCl2; 0.02% Tween20), 0.1 mg/ml BSA, 225 pCi of ^3H-labelled cyclic nucleotide substrate, tritium labeled cAMP to a final concentration of 5 nM and varying amounts of inhibitors. Reactions are initiated by addition of the cyclic nucleotide substrate, and reactions are allowed to proceed for one hr at room temperature before being terminated through mixing with 15 μL 8 mg/mL yttrium silicate SPA beads (Amersham). The beads are allowed to settle for one hr in the dark before the plates are counted in a Wallac 1450 Microbeta counter. The measured signal can be converted to activity relative to an uninhibited control (100%) and IC50 values can be calculated using the Xlfit extension to EXCEL.
In the context of the present invention the assay was performed in 60 μL assay buffer (50 mM HEPES pH 7.6; 10 mM MgCl2; 0.02% Tween20) containing enough PDE9 to convert 20-25% of 10 nM ^3H-cAMP, and […] 10 μM of inhibitor. Following 1 hr incubation the reactions were terminated by addition of 15 μL 8 mg/mL yttrium silicate SPA beads (Amersham). The beads were allowed to settle for one hr in the dark before the plates were counted in a Wallac 1450 Microbeta counter.

The next test has as its target PDE1A (Homo sapiens, UniProt P54750). The test can be described thus: PDE1 inhibition assay (PDE1A). Particulars: 15 nM tritium labelled cAMP, SPA. The protocol: (§1) PDE1A, PDE1B and PDE1C assays were performed as follows: the assays were performed in 60 μL samples containing a fixed amount of the PDE1 enzyme (sufficient to convert 20-25% of the cyclic nucleotide substrate), a buffer (50 mM HEPES (4-(2-hydroxyethyl)-1-piperazineethanesulfonic acid) pH 7.6; 10 mM MgCl2; 0.02% Tween20), 0.1 mg/ml BSA (bovine serum albumin), 15 nM tritium labelled cAMP and varying amounts of inhibitors. Reactions were initiated by addition of the cyclic nucleotide substrate, and reactions were allowed to proceed for 1 hr at room temperature before being terminated through mixing with 20 μL (0.2 mg) yttrium silicate SPA beads (PerkinElmer). The beads were allowed to settle for 1 hour in the dark before the plates were counted in a Wallac 1450 Microbeta counter. The measured signals were converted to activity relative to an uninhibited control (100%) and IC50 values were calculated using XlFit (model 205, IDBS).

The target in another test is PDE1C (Homo sapiens, UniProt Q14123). Briefly: PDE1 inhibition assay (PDE1C). The settings on record: 15 nM tritium labelled cAMP, SPA. As for the experimental part:
as §1

The target of the next test is PDE1B (Homo sapiens, UniProt Q01064). The test can be described thus: PDE1 inhibition assay (PDE1B). The settings on record: 15 nM tritium labelled cAMP, SPA. As for the experimental part: as §1
Sequence of PDE1B (Q01064 whole entry): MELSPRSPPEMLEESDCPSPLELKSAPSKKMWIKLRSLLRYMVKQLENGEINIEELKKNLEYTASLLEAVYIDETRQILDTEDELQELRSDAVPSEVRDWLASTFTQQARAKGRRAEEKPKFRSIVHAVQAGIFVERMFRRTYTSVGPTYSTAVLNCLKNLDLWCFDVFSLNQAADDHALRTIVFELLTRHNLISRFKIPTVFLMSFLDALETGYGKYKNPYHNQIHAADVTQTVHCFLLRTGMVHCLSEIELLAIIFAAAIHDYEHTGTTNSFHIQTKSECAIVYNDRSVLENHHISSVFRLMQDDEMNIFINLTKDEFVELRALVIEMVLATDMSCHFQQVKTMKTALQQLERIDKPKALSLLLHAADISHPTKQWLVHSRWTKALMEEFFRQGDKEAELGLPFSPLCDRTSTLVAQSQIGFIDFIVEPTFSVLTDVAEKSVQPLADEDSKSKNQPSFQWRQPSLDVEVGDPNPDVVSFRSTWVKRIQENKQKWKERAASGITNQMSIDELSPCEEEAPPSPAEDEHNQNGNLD

Sequence of PDE1C (Q14123 whole entry): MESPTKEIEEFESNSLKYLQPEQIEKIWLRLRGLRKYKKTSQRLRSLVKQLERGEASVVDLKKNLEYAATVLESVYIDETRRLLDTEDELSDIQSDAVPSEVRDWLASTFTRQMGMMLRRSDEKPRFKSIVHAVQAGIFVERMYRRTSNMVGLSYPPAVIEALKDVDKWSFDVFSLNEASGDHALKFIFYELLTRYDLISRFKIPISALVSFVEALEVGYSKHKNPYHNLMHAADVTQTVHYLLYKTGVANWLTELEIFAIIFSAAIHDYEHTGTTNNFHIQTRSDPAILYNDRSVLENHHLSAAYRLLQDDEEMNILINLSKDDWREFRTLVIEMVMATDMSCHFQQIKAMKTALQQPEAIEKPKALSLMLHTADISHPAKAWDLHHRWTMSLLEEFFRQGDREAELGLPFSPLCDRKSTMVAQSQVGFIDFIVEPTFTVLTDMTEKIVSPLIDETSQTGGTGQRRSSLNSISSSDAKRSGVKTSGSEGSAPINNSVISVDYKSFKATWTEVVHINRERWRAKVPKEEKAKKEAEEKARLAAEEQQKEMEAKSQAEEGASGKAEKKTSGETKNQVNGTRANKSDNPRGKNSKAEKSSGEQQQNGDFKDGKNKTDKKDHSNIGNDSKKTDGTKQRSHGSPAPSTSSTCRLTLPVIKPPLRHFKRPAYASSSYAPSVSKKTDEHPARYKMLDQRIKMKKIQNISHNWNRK
Sequence of PDE9 (O76083 whole entry): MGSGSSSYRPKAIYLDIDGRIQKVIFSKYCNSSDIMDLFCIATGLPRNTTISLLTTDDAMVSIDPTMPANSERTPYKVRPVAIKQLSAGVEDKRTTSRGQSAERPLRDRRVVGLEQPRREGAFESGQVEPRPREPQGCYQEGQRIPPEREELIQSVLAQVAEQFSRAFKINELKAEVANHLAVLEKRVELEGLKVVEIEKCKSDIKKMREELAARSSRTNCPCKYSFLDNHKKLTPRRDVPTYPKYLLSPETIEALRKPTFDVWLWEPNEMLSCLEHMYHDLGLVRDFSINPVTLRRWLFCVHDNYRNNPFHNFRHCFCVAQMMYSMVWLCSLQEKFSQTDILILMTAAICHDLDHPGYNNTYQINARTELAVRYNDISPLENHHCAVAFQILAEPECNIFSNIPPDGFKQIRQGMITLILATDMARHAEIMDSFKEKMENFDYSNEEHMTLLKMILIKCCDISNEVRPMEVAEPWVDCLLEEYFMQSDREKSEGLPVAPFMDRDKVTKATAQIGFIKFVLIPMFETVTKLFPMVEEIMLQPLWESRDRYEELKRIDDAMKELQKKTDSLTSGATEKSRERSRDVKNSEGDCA
Sequence of PDE1A (P54750 whole entry): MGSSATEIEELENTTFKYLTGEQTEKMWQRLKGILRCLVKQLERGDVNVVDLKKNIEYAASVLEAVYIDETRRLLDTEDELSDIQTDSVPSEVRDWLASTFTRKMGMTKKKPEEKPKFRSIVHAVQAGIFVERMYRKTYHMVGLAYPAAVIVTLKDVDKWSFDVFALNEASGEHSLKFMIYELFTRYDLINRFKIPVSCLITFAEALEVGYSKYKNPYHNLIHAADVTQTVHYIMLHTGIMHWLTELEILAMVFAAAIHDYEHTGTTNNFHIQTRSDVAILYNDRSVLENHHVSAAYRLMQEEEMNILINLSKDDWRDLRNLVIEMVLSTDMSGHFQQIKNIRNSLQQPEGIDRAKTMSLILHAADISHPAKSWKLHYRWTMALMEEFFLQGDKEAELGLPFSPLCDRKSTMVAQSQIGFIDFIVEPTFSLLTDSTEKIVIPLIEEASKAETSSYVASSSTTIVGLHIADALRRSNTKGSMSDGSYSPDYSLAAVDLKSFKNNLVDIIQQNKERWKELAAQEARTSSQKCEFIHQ

Consider `Cn1c(Cc2ccc(-c3cccc(F)n3)cc2)cn2c(C3CCOCC3)ncc2c1=O` [Example 14, 6-[[4-(6-fluoro-2-pyridyl)phenyl]methyl]-7-methyl-3-tetrahydropyran-4-yl-imidazo[1,5-a]pyrazin-8-one], for which the inhibition at 10 µM against PDE9 stood at 14%. The figures for the IC50 on PDE1A, on PDE1C and on PDE1B were 62 nM, 67 nM and 5.2 nM, respectively.
Take `Cn1c(Cc2ccc(-c3cccc(C(F)F)n3)cc2)cn2c(C3CCOCC3)ncc2c1=O` [Example 15, 6-[[4-[6-(difluoromethyl)-2-pyridyl]phenyl]methyl]-7-methyl-3-tetrahydropyran-4-yl-imidazo[1,5-a]pyrazin-8-one]: the inhibition at 10 µM against PDE9 amounted to 6%. Also, the IC50 against PDE1A is 58 nM; against PDE1C, 87 nM; at PDE1B, 14 nM.
Regarding `COc1cccc(-c2ccc(Cc3cn4c(C5CCOCC5)ncc4c(=O)n3C)cc2)n1` [Example 16, 6-[[4-(6-methoxy-2-pyridyl)phenyl]methyl]-7-methyl-3-tetrahydropyran-4-yl-imidazo[1,5-a]pyrazin-8-one], the inhibition at 10 µM against PDE9 is 7%. Besides, the IC50 at PDE1A came out at 24 nM; against PDE1C, 42 nM; against PDE1B, 4.7 nM.
In the case of `COc1cccnc1-c1ccc(Cc2cn3c(C4CCOCC4)ncc3c(=O)n2C)cc1` [Example 17, 6-[[4-(3-methoxy-2-pyridyl)phenyl]methyl]-7-methyl-3-tetrahydropyran-4-yl-imidazo[1,5-a]pyrazin-8-one], the inhibition at 10 µM against PDE9 turned out to be 2%. The IC50 amounted to 87 nM against PDE1A, 161 nM against PDE1C and 21 nM against PDE1B.
For `Cc1ccccc1-c1ccc(Cc2cn3c(C4CCOCC4)ncc3c(=O)n2C)cc1` [Example 18, 7-methyl-6-[[4-(o-tolyl)phenyl]methyl]-3-tetrahydropyran-4-yl-imidazo[1,5-a]pyrazin-8-one], the inhibition at 10 µM at PDE9 amounted to 9%. Also, the values for the IC50 against PDE1A, against PDE1C and against PDE1B were 117 nM, 238 nM and 23 nM, respectively.
For `Cn1c(Cc2ccc(-c3ccccc3)cc2)cn2c(C3CCOCC3)ncc2c1=O` [Example 19, 7-methyl-6-[(4-phenylphenyl)methyl]-3-tetrahydropyran-4-yl-imidazo[1,5-a]pyrazin-8-one] the same measures were 7%, 28 nM, 61 nM and 7.3 nM.
As for `Cn1cnc(-c2ccc(Cc3cn4c(C5CCOCC5)ncc4c(=O)n3C)cc2)c1` [Example 20, 7-methyl-6-(4-(1-methyl-1H-imidazol-4-yl)benzyl)-3-(tetrahydro-2H-pyran-4-yl)imidazo[1,5-a]pyrazin-8(7H)-one], at PDE9, the inhibition at 10 µM was -6%. Further, the IC50 against PDE1A was determined as 75 nM; on PDE1C, 157 nM; against PDE1B, 17 nM.
As to `CC(C)c1ncc2c(=O)n(C)c(Cc3ccc(-c4cccc(F)n4)cc3)cn12` [Example 21, 6-[[4-(6-fluoro-2-pyridyl)phenyl]methyl]-3-isopropyl-7-methyl-imidazo[1,5-a]pyrazin-8-one], the inhibition at 10 µM against PDE9 turned out to be 13%. Further, the figures for the IC50 at PDE1A, against PDE1C and against PDE1B were 36 nM, 93 nM and 13 nM, respectively.
In the case of `CCCc1ncc2c(=O)n(C)c(Cc3ccc(-c4cccc(F)n4)cc3)cn12` [Example 22, 6-(4-(6-fluoropyridin-2-yl)benzyl)-7-methyl-3-propylimidazo[1,5-a]pyrazin-8(7H)-one], the inhibition at 10 µM against PDE9 was determined as 2%. For the same compound, the IC50 against PDE1A is 168 nM; at PDE1C it was 310 nM; against PDE1B it was 40 nM.
As to `CCc1ncc2c(=O)n(C)c(Cc3ccc(-c4cccc(F)n4)cc3)cn12` [Example 23, 3-ethyl-6-(4-(6-fluoropyridin-2-yl)benzyl)-7-methylimidazo[1,5-a]pyrazin-8(7H)-one], the inhibition at 10 µM against PDE9 was 17%. In addition, the IC50 was 176 nM on PDE1A, 578 nM at PDE1C and 56 nM against PDE1B.
In the case of `Cn1c(Cc2ccc(-c3cnccn3)cc2)cn2c(C3CCOCC3)ncc2c1=O` [Example 24, 7-methyl-6-(4-(pyrazin-2-yl)benzyl)-3-(tetrahydro-2H-pyran-4-yl)imidazo[1,5-a]pyrazin-8(7H)-one], the inhibition at 10 µM against PDE9 was -2%. The figures for the IC50 at PDE1A, on PDE1C and against PDE1B were 91 nM, 198 nM and 30 nM, respectively.
Regarding `Cn1c(Cc2ccc(-c3cccc(F)n3)cc2)cn2c(CC(F)(F)F)ncc2c1=O` [Example 25, 6-(4-(6-fluoropyridin-2-yl)benzyl)-7-methyl-3-(2,2,2-trifluoroethyl)imidazo[1,5-a]pyrazin-8(7H)-one], the inhibition at 10 µM on PDE9 was determined as 9%. Besides, the IC50 amounted to 218 nM against PDE1A, 400 nM on PDE1C and 90 nM on PDE1B.
For `Cn1c(Cc2ccc(-c3ccncn3)cc2)cn2c(C3CCOCC3)ncc2c1=O` [Example 26, 7-methyl-6-(4-(pyrimidin-4-yl)benzyl)-3-(tetrahydro-2H-pyran-4-yl)imidazo[1,5-a]pyrazin-8(7H)-one] the same measures were 14%, 68 nM, 149 nM and 16 nM.

By inhibition is commonly meant the change of the read-out against control, counted positive when it falls. One may read the IC50 as the concentration that gives 50% inhibition. The low end stands for inhibition by little substance, the high end for a need for much substance.
